From patent US8084467B2, “Pyrazole derivatives as cannabinoid receptor antagonists” (University of Connecticut, priority 2004, dated 2011) come the findings set out here.

Where “and” joins values, the source holds several entries; their conditions need not be identical. Identical values can stand only once. Like-named read-outs stand apart in the source and are kept apart here.

One assay addresses T1, CB1 cannabinoid receptor (Rattus norvegicus, UniProt P20272).
T1 construct: membranes were prepared from rat forebrain membranes; from tissue; host or cells: rat forebrain
The assay can be described thus: CB1 receptor binding, rat forebrain membranes, [3H] CP-55,940 displacement. The settings on record: for Ki: 0.8 nM [3H] CP-55,940; for selectivity CB1: ratio of CB2 Ki to CB1 Ki. As for the experimental part:
Some of the inventive analogs were tested for CB2 receptor binding affinity and for CB1 receptor affinity (to determine selectivity). […] The lower the Ki value the higher the binding affinity. […]
Membranes, previously frozen at −80° C., were thawed on ice. To the stirred suspension was added three volumes of TME (25 mM Tris-HCl buffer, 5 mM MgCl2 and 1 mM EDTA) at a pH 7.4. The suspension was incubated at 4° C. for 30 min. At the end of the incubation, the membranes were pelleted and washed three times with TME.
(§1) The treated membranes were subsequently used in the binding assay described below. Approximately 30 μg of membranes were incubated in silanized 96-well microtiter plate with TME containing 0.1% essentially fatty acid-free bovine serum albumin (BSA), 0.8 nM [^3H] […] Radioactivity was detected using MicroScint 20 scintillation cocktail added directly to the dried filterplates, and the filterplates were counted using a Packard Instruments Top-Count. […] Data collected from three independent experiments performed with duplicate determinations was normalized between 100% and 0% specific binding for [^3H] […] The normalized data was analyzed using a 4-parameter nonlinear logistic equation to yield IC50 values.

A further assay deals with T2, CB2 receptor (Mus musculus, UniProt P47936).
T2 construct: membranes were prepared from frozen mouse spleen; from tissue; host or cells: mouse spleen
The assay can be described thus: CB2 receptor binding, mouse spleen membranes, same manner as the CB1 binding assay. The settings on record: for Ki: [3H] CP-55,940. As for the experimental part: Some of the inventive analogs were tested for CB2 receptor binding affinity and for CB1 receptor affinity (to determine selectivity). […] The lower the Ki value the higher the binding affinity.
as §1
Silanized centrifuge tubes were used throughout to minimize receptor loss due to adsorption. The CB2 binding assay was conducted in the same manner as for the CB1 binding assay. The binding affinities (Ki) were also expressed in nanomoles (nM).

The test system of another assay is rats. The assay can be described thus: Food-reinforced lever pressing in trained rats. The class given is in vivo, rat. The following applies: IP, various dosages, tested ten minutes after injection, FIG. 1, p<0.05. As for the experimental part: 11 rats were trained to press a lever five times to receive a 45 mg food pellet. The training continued over a time period of several weeks. After the training period all rats received drug treatments once per week. The specific rat receiving a drug treatment and the dosage given were each randomly varied. The treatments comprised administration of a vehicle control solution or various dosages of inventive compound 1-5 in combination with the vehicle control solution. All injections were given IP. Ten minutes after injection the rat was placed in proximity to the lever.
FIG. 1 illustrates a mean (±SEM) number of lever presses in 30 min for treated animals. […] FIG. 1 illustrates a classic dose response curve wherein as the dose of drug (inventive compound 1-5) increases, lever pressing consistently decreases. Without wishing to be bound to any theory, applicants believe that inventive compound 1-5 antagonizes (blocks) the CB1 receptors, thereby suppressing appetite and leading to decreased lever pressing.

Setting [1] is: rat forebrain membranes, read-out: affinities Ki CB1.
Setting [2] is: mouse spleen membranes, read-out: affinities Ki CB2.

T1 sequence (P20272 whole entry): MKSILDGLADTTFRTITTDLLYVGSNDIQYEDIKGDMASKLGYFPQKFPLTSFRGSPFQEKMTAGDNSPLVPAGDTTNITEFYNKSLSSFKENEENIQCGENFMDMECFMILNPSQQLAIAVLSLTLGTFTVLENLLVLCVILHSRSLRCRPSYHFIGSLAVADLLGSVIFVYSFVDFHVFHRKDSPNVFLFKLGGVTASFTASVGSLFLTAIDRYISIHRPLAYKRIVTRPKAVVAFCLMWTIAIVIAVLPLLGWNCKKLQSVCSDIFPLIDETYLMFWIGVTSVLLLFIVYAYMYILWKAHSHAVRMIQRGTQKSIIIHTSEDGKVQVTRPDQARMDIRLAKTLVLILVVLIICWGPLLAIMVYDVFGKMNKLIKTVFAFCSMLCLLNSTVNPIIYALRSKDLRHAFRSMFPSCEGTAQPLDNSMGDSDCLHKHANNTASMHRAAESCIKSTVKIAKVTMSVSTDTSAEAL
T2 sequence (P47936 whole entry): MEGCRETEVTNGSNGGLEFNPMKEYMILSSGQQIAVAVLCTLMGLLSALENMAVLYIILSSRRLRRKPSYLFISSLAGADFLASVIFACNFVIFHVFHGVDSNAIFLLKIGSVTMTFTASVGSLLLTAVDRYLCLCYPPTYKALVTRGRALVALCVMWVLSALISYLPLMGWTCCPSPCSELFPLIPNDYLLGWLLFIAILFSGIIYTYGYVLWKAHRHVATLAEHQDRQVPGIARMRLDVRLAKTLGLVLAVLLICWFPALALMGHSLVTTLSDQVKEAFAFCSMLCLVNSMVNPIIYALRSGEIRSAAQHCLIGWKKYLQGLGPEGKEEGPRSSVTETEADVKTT

For the compound `O=C(NN1CCCCC1)c1nn(-c2ccc(Cl)cc2Cl)c(-c2ccc(-c3cccnc3)cc2)c1CO` [Compound 1-5], the Ki came out at 5.8 nM at CB1 cannabinoid receptor (setting [1]) and 2310 nM on CB2 receptor (setting [2]). For the same compound, the “selectivity CB1” value on CB1 cannabinoid receptor is reported as 398. The “suppression of food-reinforced lever pressing (number of lever presses in 30 min)” value with rats is given as “suppression of food-reinforced lever pressing was statistically significant”.

Consider `Cn1nnnc1-c1ccc(-c2c(CO)c(C(=O)NN3CCCCC3)nn2-c2ccc(Cl)cc2Cl)cc1` [Compound 2-5], for which the inhibition constant (Ki) on CB1 cannabinoid receptor (setting [1]) was determined as 203 nM; at CB2 receptor (setting [2]), 2130 nM. In addition, the “selectivity CB1” value at CB1 cannabinoid receptor stood at 10.5.

Regarding `Cn1nnnc1-c1ccc(-c2c(CO)c(C(=O)NC3CCCCC3)nn2-c2ccc(Cl)cc2Cl)cc1` [Compound 2-11], the inhibition constant (Ki) at CB1 cannabinoid receptor (setting [1]) stood at 118 nM; on CB2 receptor (setting [2]), 122 nM. The “selectivity CB1” value on CB1 cannabinoid receptor worked out at 1.

`O=C(Nc1nn(-c2ccc(Cl)cc2Cl)c(-c2ccc(Br)cc2)c1CBr)NC1CCCCC1` [Compound 3-7]: the Ki on CB1 cannabinoid receptor (setting [1]) is 38 nM; at CB2 receptor (setting [2]), 136 nM. For the same compound, the “selectivity CB1” value on CB1 cannabinoid receptor is given as 3.6.

Turning to `O=C(NC1CCCCC1)c1nn(-c2ccc(Cl)cc2Cl)c(-c2ccc(-c3nnn[nH]3)cc2)c1CO` [Compound 2-10], the Ki was 192 nM at CB1 cannabinoid receptor (setting [1]) and 463 nM on CB2 receptor (setting [2]). For the same compound, on CB1 cannabinoid receptor, the “selectivity CB1” value stood at 2.4.

As for `COCOCc1c(C(=O)NC2CCCCC2)nn(-c2ccc(Cl)cc2Cl)c1-c1ccc(Br)cc1` [Compound 1-13], the Ki came to 15 nM at CB1 cannabinoid receptor (setting [1]) and 54 nM on CB2 receptor (setting [2]). The “selectivity CB1” value at CB1 cannabinoid receptor came out at 3.6.

In the case of `Cc1c(C=Cc2ccccc2)nn(-c2ccc(Cl)cc2Cl)c1-c1ccc(Br)cc1` [Compound 1-23], the figures for the inhibition constant (Ki) on CB1 cannabinoid receptor (setting [1]) and on CB2 receptor (setting [2]) were 331 nM and 16400 nM, respectively. Further, the “selectivity CB1” value at CB1 cannabinoid receptor is recorded as 49.6.

For the compound `CNCc1c(C(=O)NC2CCCCC2)nn(-c2ccc(Cl)cc2Cl)c1-c1ccc(Br)cc1` [Compound 1-15], the inhibitory constant (Ki) was 172 nM on CB1 cannabinoid receptor (setting [1]) and 397 nM at CB2 receptor (setting [2]). In addition, the “selectivity CB1” value at CB1 cannabinoid receptor was found to be 2.3.

`Cc1c(NC(=O)NC2CCCCC2)nn(-c2ccc(Cl)cc2Cl)c1-c1ccc(Br)cc1` [Compound 3-8]: the Ki at CB1 cannabinoid receptor (setting [1]) is 6.8 nM; on CB2 receptor (setting [2]), 4320 nM. For the same compound, the “selectivity CB1” value on CB1 cannabinoid receptor is 635.2.

Regarding `Cc1c(C=Cc2ccccc2)nn(-c2ccc(Cl)cc2Cl)c1-c1ccc(Br)cc1` [Compound 1-24], the results for the Ki at CB1 cannabinoid receptor (setting [1]) and on CB2 receptor (setting [2]) were 141 nM and 10600 nM, respectively. For the same compound, the “selectivity CB1” value at CB1 cannabinoid receptor was determined as 75.0.

Turning to `O=C(NC12CC3CC(CC(C3)C1)C2)c1cc(-c2ccccc2)n(CCCCCCl)n1` [Compound 4-6], the Ki is 12.2 nM and 12 nM on CB1 cannabinoid receptor (affinities Ki CB1, rat forebrain membranes); 4.79 nM and 4.8 nM at CB2 receptor (affinities Ki CB2, mouse spleen membranes). Moreover, at CB2 receptor (ratio of CB1 Ki to CB2 Ki), the “selectivity CB2” value is given as 2.5.

For `O=C(NN1CCCCC1)c1nn(-c2ccc(Cl)cc2Cl)c(-c2ccc(-c3cccnc3)cc2)c1CF` [Compound 1-6], the inhibition constant (Ki) at CB1 cannabinoid receptor (setting [1]) came to 15.1 nM; at CB2 receptor (setting [2]) it was 1930 nM. For the same compound, the “selectivity CB1” value on CB1 cannabinoid receptor came to 128.
